Test results reported in patent US11318157B2, “6-6 bicyclic aromatic ring substituted nucleoside analogues for use as PRMT5 inhibitors” (Janssen Pharmaceutica NV, priority 2015, dated 2022).
Like-named read-outs stand apart in the source and are kept apart here.

Columns and labels:
PRMT5-MEP50 enzyme [1] = biological target: T1, PRMT5-MEP50 enzyme (Homo sapiens, UniProt O14744); assay: In vitro assay 1a: high throughput mass spectrometer assay of SAH formation, 10 nM enzyme, 60 min; assay type: biochemical; conditions: averaged values, PRMT5-MEP50, 10 nM enzyme
T1 construct: One virus expresses full length human PRMT5 with Flag-tag at N-terminus; Flag (N); purchased Charles River (Argenta); host or cells: insect cells (Sf9), baculovirus co-infection
Source text: Experimental Procedures In Vitro Assay (Assay 1a and 1b)
PRMT5-MEP50 enzyme was purchased from Charles River (Argenta). The enzyme complex was produced in insect cells (Sf9) infected simultaneously with two baculoviruses. One virus expresses full length human PRMT5 with Flag-tag at N-terminus, the second virus expresses full length MEP50 with His6-TEV cleavage at N-terminus. The protein was affinity purified using anti-Flag (M2) beads eluted with 3×FLAG peptide, followed by His-Select eluted with 0.5M imidazole. Eluted protein was then dialysed against tris-buffered saline (TBS) (pH 8.0) containing 20% glycerol and 3 mM dithiothreitol (DTT).
Full-length untagged human recombinant histone H2A (residues 1-130, Genbank Accession #NM_021052 MW=14.1 kDa) expressed in E. coli was purchased from Reaction Biology Corporation, Cat #HMT-11-146. Reagents used for making reaction buffer or stopping reaction were purchased including Tris base (Sigma Cat #T-1503), NaCl (Sigma Cat #RGF-3270), MgCl2 (Sigma Cat #M0250), DTTI (Invitrogen Cat #15508-013) and Formic Acid (Riedel deHaen, Cat #33015)
High Throughput Mass Spectrometer Assay
PRMT5 catalyzes the sequential methylations of the terminal nitrogen atoms on the guanidine groups of arginine residues within proteins using co-substrate S-adenosyl-L-methionine (AdoMet, SAM), forming mono-methyl (MMA), symmetric-dimethyl arginine (sDMA) and S-adenosyl-L-homocysteine (AdoHcy, SAH). The enzyme activity was determined by following the product SAH formation using high throughput mass spectrometry (Agilent Rapidfire 300 System coupled to a Sciex 4000 series QTrap® triple-quad MS/MS). The reaction buffer was 20 mM Tris-HCl, pH 8.5, 50 mM NaCl, 5 mM MgCl2 and 1 mM DTT. The reaction activity was stopped using 1% formic acid (final concentration).
The IC50 Studies were performed using eleven point dosing series made for each compound by serially diluted 1:2 in dimethyl sulfoxide (DMSO), with point 12 being a DMSO control. Compounds were first spotted to plates, and followed by addition of 2 μM SAM and 0.6 μM H2A (histone H2A) solution mixture. The same volume of enzyme solution was added to initiate the enzymatic reactions. The final concentrations of the reaction are at 1 μM SAM, 0.3 μM H2A and 10 nM enzyme (assay 1a) or 1.25 nM enzyme (assay 1b). The reaction was incubated at 30° C. for 60 minutes (min) when 10 nM enzyme was used and for 120 min when 1.25 nM enzyme was used. Subsequently, the reaction was quenched by addition of formic acid to a final concentration of 1%. The inhibitions of SAH formation in the presence of compounds were calculated as a percentage of the control relative to the uninhibited reaction as a function of inhibitor concentration. The data were fit as follows: Y=Bottom+(Top−Bottom)/(1+10^((log IC50−X)*h))
where IC50 is the inhibitor concentration (same unit as X) at 50% inhibition and h is the Hill slope. Y is percent of inhibition, X is log of compound concentration. Bottom and Top are the plateaus in same units as Y.

PRMT5-MEP50 enzyme [2] = biological target: T1, PRMT5-MEP50 enzyme; assay: In vitro assay 1b: high throughput mass spectrometer assay of SAH formation, 1.25 nM enzyme, 120 min; assay type: biochemical
Outline: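 SAH product measured by RapidFire mass spectrometry after formic acid stop; IC50 from 11-point 1:2 dilutions, four-parameter fit. Reactions at 30 °C in 20 mM Tris pH 8.5 with 1 μM SAM, 0.3 μM H2A: assay 1a 10 nM PRMT5-MEP50, 60 min; assay 1b 1.25 nM, 120 min.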

[3] = tested on: nuclear symmetric Arginine dimethylation in A549 cells; assay: PD assay (assay 2): inhibition of nuclear symmetric Arginine dimethylation (SYM10 immunohistochemistry), 48 h; assay type: cell-based; conditions: Homo sapiens
Outline: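 Cells seeded at 400/well overnight, then treated 48 h at 37 °C, final DMSO 0.2%. Fixed and stained with SYM10 antibody plus Alexa 488 secondary, Hoechst and CellMask, then imaged on Opera. Normalized to DMSO (high) and 10 μM reference compound (low); averaged pIC50 reported.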

[4] = read-out: pIC50 Assay 1a (converted)
[5] = averaged values, PRMT5-MEP50, 1.25 nM enzyme, 120 min, read-out: pIC50 Assay 1b (converted)
[6] = A549, averaged values, PD assay, A549 cells, symmetric Arginine dimethylation, read-out: pIC50 Assay 2 (converted)

T1 sequence (O14744 whole entry): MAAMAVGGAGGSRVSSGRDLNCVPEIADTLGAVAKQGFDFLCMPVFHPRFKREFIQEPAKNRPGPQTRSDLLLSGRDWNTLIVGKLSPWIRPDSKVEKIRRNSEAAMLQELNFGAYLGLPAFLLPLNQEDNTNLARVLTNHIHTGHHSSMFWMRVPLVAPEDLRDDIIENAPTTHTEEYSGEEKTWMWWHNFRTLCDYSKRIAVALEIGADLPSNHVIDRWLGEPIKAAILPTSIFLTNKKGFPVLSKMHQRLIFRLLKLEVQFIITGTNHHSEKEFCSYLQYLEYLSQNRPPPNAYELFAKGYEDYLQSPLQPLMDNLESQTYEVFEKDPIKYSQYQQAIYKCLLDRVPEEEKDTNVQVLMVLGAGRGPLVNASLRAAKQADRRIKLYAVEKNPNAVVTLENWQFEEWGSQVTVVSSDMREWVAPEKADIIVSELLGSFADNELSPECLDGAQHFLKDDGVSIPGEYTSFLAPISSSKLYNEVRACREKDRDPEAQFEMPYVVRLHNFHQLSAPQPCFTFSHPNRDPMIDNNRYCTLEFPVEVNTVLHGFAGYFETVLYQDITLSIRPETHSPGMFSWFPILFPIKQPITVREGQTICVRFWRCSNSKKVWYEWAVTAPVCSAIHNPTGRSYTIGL
T1 sequence (Q9BQA1 whole entry partner): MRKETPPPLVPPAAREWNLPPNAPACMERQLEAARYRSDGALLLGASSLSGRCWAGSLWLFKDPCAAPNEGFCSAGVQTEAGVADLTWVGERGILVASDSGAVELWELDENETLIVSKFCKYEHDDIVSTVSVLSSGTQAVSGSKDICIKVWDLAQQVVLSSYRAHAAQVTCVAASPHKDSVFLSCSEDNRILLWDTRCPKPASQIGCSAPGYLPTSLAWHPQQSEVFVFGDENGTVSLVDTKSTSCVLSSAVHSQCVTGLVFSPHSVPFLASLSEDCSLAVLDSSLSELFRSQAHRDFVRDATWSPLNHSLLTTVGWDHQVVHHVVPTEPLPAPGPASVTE

Row | IC50 (PRMT5-MEP50 enzyme [1]; [4]) | IC50 (PRMT5-MEP50 enzyme [2]; [5]) | IC50 [3, 6] | Compound | IC50 ([3]; A549, read-out: pIC50 Assay 2 (converted)) | IC50 (PRMT5-MEP50 enzyme [1]; pIC50 Assay 1a) | IC50 (PRMT5-MEP50 enzyme [2])
1 | 31.6 nM | 50.1 nM | 63.1 nM | Nc1ncnc2c1ccn2[C@@H]1O[C@H](/C=C/c2ccc3cc(Cl)cnc3c2)[C@@H](O)[C@H]1O [Compound 57a] |  |  | 
2 | 12.6 nM | 20 nM | 39.8 nM | Nc1ncnc2c1ccn2[C@@H]1C[C@H](CCc2ccc3cc(Cl)cnc3c2)[C@@H](O)[C@H]1O [Compound 58] |  |  | 
3 | 25.1 nM | 79.4 nM | 126 nM | Nc1ncnc2c1ccn2[C@@H]1O[C@H](CCc2ccc3cc(Cl)cnc3c2)[C@@H](O)[C@H]1O [Compound 59] |  |  | 
4 | 251 nM | 398 nM | 1260 nM | Nc1ncnn2c([C@@H]3O[C@H](COc4ccc5cccnc5c4)[C@@H](O)[C@H]3O)ccc12 [Compound 60] |  |  | 
5 | 398 nM | 1000 nM | ~1320 nM | Nc1ncnn2c([C@@H]3O[C@H](/C=C/c4ccc5cccnc5c4)[C@@H](O)[C@H]3O)ccc12 [Compound 61] |  |  | 
6 | 631 nM | 794 nM | 1580 nM | Nc1ncnn2c([C@@H]3O[C@H](CCc4ccc5cccnc5c4)[C@@H](O)[C@H]3O)ccc12 [Compound 62] |  |  | 
7 | 25.1 nM | 126 nM | 200 nM | Nc1ncnc2c1ccn2[C@@H]1O[C@H](C#Cc2ccc3cccnc3c2)[C@@H](O)[C@H]1O [Compound 63] |  |  | 
8 | 3160 nM | 1000 nM | 15800 nM | Nc1ncnc2c1ccn2[C@@H]1C[C@H](OCc2ccc3ncccc3c2)[C@@H](O)[C@H]1O [Compound 65] |  |  | 
9 | 2000 nM | 5010 nM | > 20000 nM | Nc1ncnc2c1ccn2[C@@H]1C[C@H](Cc2ccc3cccnc3c2)[C@@H](O)[C@H]1O [Compound 66] |  |  | 
10 | 631 nM | 3160 nM | > 20000 nM | Nc1ncnc2c1ccn2[C@@H]1O[C@H](COc2ccc3ccnnc3c2)[C@@H](O)[C@H]1O [Compound 69] |  |  | 
11 | 631 nM | 1580 nM | 6310 nM | N#Cc1ccc2ccc(OC[C@H]3O[C@@H](n4ccc5c(N)ncnc54)[C@H](O)[C@@H]3O)cc2n1 [Compound 70] |  |  | 
12 | 3160 nM | 2000 nM | 10000 nM | COc1ncnc2c1ccn2[C@@H]1O[C@H](COc2ccc3cc(Br)cnc3c2)[C@@H](O)[C@H]1O [Compound 71] |  |  | 
13 | > 10000 nM | > 100000 nM | > 10000 nM | CC(C)C(=O)O[C@@H]1[C@H](OC(=O)C(C)C)[C@@H](COc2ccc3ccc(C(F)(F)F)nc3c2)O[C@H]1n1ccc2c(N)ncnc21 [Compound 72] |  |  | 
14 | > 10000 nM | > 100000 nM | 100 nM | CC(C)C(=O)O[C@@H]1[C@H](OC(=O)C(C)C)[C@@H](COc2ccc3cc(Br)cnc3c2)O[C@H]1n1ccc2c(N)ncnc21 [Compound 73] |  |  | 
15 | 0.251 nM | 0.501 nM | 1.58 nM | Nc1ncnc2c1ccn2[C@@H]1C[C@H](CCc2ccc3ccc(NCC(F)F)nc3c2)[C@@H](O)[C@H]1O [Compound 75] |  |  | 
16 | 200 nM | 501 nM | 1260 nM | Cc1cn([C@@H]2O[C@H](COc3ccc4cccnc4c3)[C@@H](O)[C@H]2O)c2ncnc(N)c12 [Compound 82] |  |  | 
17 | 39.8 nM | 126 nM | 200 nM | Cc1cc2c(N)ncnc2n1[C@@H]1O[C@H](COc2ccc3cccnc3c2)[C@@H](O)[C@H]1O [Compound 83] |  |  | 

Row | IC50 (PRMT5-MEP50 enzyme [1]; [4]) | IC50 (PRMT5-MEP50 enzyme [2]; [5]) | IC50 [3, 6] | Compound | IC50 ([3]; A549, read-out: pIC50 Assay 2 (converted)) | IC50 (PRMT5-MEP50 enzyme [1]; pIC50 Assay 1a) | IC50 (PRMT5-MEP50 enzyme [2])
18 | 15.8 nM | 79.4 nM | 200 nM | Nc1ncnc2c1ccn2[C@@H]1O[C@H](COc2ccc3cc(C4CC4)cnc3c2)[C@@H](O)[C@H]1O [Compound 84] |  |  | 
19 | > 10000 nM | 7940 nM | 12600 nM | Nc1ncnc2c1ccn2[C@@H]1C[C@H](OCc2ccc3cnccc3c2)[C@@H](O)[C@H]1O [Compound 85] |  |  | 
20 | 2510 nM | 1000 nM | 5010 nM | CN(C[C@H]1O[C@@H](n2ccc3c(Cl)ncnc32)[C@H](O)[C@@H]1O)c1ccc2cc(Br)cnc2c1 [Compound 86] |  |  | 
21 | 501 nM | 1000 nM | 1580 nM | COc1ncnc2c1ccn2[C@@H]1O[C@H](CNc2ccc3cc(Br)cnc3c2)[C@@H](O)[C@H]1O [Compound 87] |  |  | 
22 | > 10000 nM | 7940 nM | > 10000 nM | COc1ncnc2c1ccn2[C@@H]1O[C@H](CN(C)c2ccc3cc(Br)cnc3c2)[C@@H](O)[C@H]1O [Compound 88] |  |  | 
23 | > 10000 nM | 31600 nM | 63.1 nM | CC(C)C(=O)O[C@@H]1[C@H](OC(=O)C(C)C)[C@@H](COc2ccc3cccnc3c2)O[C@H]1n1ccc2c(N)ncnc21 [Compound 89] |  |  | 
24 | 100 nM | 631 nM | > 10000 nM | Nc1ncnc2c1ccn2[C@@H]1C[C@H](Cc2ccc3ccccc3c2)[C@@H](O)[C@H]1O [Compound 90] |  |  | 
25 | 126 nM | 501 nM | 398 nM | Nc1ncnc2c1ccn2[C@@H]1O[C@H](COc2cc3ncccc3cc2Cl)[C@@H](O)[C@H]1O [Compound 91] |  |  | 
26 | 316 nM | 501 nM | > 10000 nM | Nc1ncnc2c1ccn2[C@@H]1C[C@H](Cc2ccc3ccncc3c2)[C@@H](O)[C@H]1O [Compound 95] |  |  | 
27 | 200 nM | 501 nM | 200 nM | Nc1ncnc2c1ccn2[C@@H]1O[C@H](COc2cc3ncc(Br)cc3cc2C(F)(F)F)[C@@H](O)[C@H]1O [Compound 96] |  |  | 
28 | > 10000 nM | 15800 nM | > 10000 nM | CN(C)Cc1ccc2ccc(OC[C@H]3O[C@@H](n4ccc5c(N)ncnc54)[C@H](O)[C@@H]3O)cc2n1 [Compound 97] |  |  | 
29 | 631 nM | 1580 nM | 10000 nM | N#Cc1cnc2cc(OC[C@H]3O[C@@H](n4ccc5c(N)ncnc54)[C@H](O)[C@@H]3O)ccc2c1 [Compound 98] |  |  | 
30 | > 10000 nM | > 100000 nM | > 10000 nM | Nc1ncnc2c1ccn2[C@@H]1O[C@H](COc2ccc3c(C(F)(F)F)ccnc3c2)[C@@H](O)[C@H]1O [Compound 99] |  |  | 
31 | 126 nM | 200 nM | 794 nM | Nc1ncnc2c1ccn2[C@@H]1O[C@H](COc2cc3ncc(Cl)cc3cc2Cl)[C@@H](O)[C@H]1O [Compound 100] |  |  | 
32 | 1000 nM | 794 nM | 2000 nM | Nc1ncnc2c1ccn2[C@@H]1O[C@H](COc2ccc3cc(Cl)cnc3c2Cl)[C@@H](O)[C@H]1O [Compound 101] |  |  | 
33 | 100 nM | 501 nM | > 10000 nM | Nc1ncnc2c1ccn2[C@@H]1O[C@H](COc2cc(Cl)c3cccnc3c2)[C@@H](O)[C@H]1O [Compound 102] |  |  | 
34 | 398 nM | 1260 nM | 7940 nM | Nc1ncnc2c1ccn2[C@@H]1O[C@H](CCc2ccc3ccncc3c2)[C@@H](O)[C@H]1O [Compound 103] |  |  | 

Row | Compound | IC50 (PRMT5-MEP50 enzyme [1]; [4]) | IC50 (PRMT5-MEP50 enzyme [2]; [5]) | IC50 [3, 6] | IC50 ([3]; A549, read-out: pIC50 Assay 2 (converted)) | IC50 (PRMT5-MEP50 enzyme [1]; pIC50 Assay 1a) | IC50 (PRMT5-MEP50 enzyme [2])
35 | Nc1ncnc2c1ccn2[C@@H]1C[C@H](CCc2ccc3cccnc3c2)[C@@H](O)[C@H]1O [Compound 56] | 6.31 nM | 15.8 nM |  | 7.94 nM |  | 
36 | Nc1ncnc2c1ccn2[C@@H]1C[C@H](OCc2ccc3cccnc3c2)[C@@H](O)[C@H]1O [Compound 64] |  |  | ~1070 nM |  | 126 nM | 794 nM
